Laboratory results as given in ChEMBL document CHEMBL1806452, “New salicylamide and sulfonamide derivatives of quinoxaline 1,4-di-N-oxide with antileishmanial and antimalarial activities” (Bioorg Med Chem Lett, 2011).

How the values were obtained:
[1] = Cytotoxicity against mouse peritoneal macrophages after 48 hrs by trypan blue exclusion method; type: cell-based, Peritoneal macrophage cell
Leishmania amazonensis [2] = test: Leishmanicidal activity against axenic amastigotes of Leishmania amazonensis by MTT assay; type: functional, organism-based
Leishmania amazonensis [3] = test: Ratio of amphotericin B IC50 to compound IC50 for axenic amastigotes of Leishmania amazonensis; type: functional
[4] = Selectivity index, ratio of CC50 for mouse peritoneal macrophages to IC50 for axenic amastigotes of Leishmania amazonensis; type: functional
Plasmodium falciparum [5] = test: Ratio of chloroquine IC50 to compound IC50 for chloroquine-resistant Plasmodium falciparum FCR-3 infected in human erythrocytes; type: functional
Plasmodium falciparum [6] = test: Antiplasmodial activity against chloroquine-resistant Plasmodium falciparum FCR-3 infected in human erythrocytes assessed as inhibition of [3H]hypoxanthine uptake after 48 hrs; type: functional, organism-based

Row | Structure (SMILES) | CC50 at 48 h [1] | IC50 (Leishmania amazonensis [2]) | Ratio IC50 (Leishmania amazonensis [3]) | Ratio CC50/IC50 [4] | Ratio IC50 (Plasmodium falciparum [5]) | IC50 (Plasmodium falciparum [6])
1 | N#Cc1c(NS(=O)(=O)c2ccc([N+](=O)[O-])cc2)[n+]([O-])c2ccc(Cl)cc2[n+]1[O-] | 7.9 µM | 2.1 µM | 10.5 | 3.8 | >79 | > 23.7 µM
2 | CC(=O)Oc1ccccc1C(=O)Nc1c(C#N)[n+]([O-])c2cc(F)ccc2[n+]1[O-] | 13.6 µM | 7.3 µM | 36.5 | 1.8 | 25 | 7.4 µM
3 | C[C@@H]1[C@H](O)[C@@H](C)/C=C/C=C/C=C/C=C/C=C/C=C/C=C/[C@H](O[C@@H]2O[C@H](C)[C@@H](O)[C@H](N)[C@@H]2O)C[C@@H]2O[C@](O)(C[C@@H](O)C[C@@H](O)[C@H](O)CC[C@@H](O)C[C@@H](O)CC(=O)O[C@H]1C)C[C@H](O)[C@H]2C(=O)O [AMPHOTERICIN B] | 4.4 µM | – | 1 | – | – | –
4 | N#Cc1c(NS(=O)(=O)c2ccc([N+](=O)[O-])cc2)[n+]([O-])c2ccccc2[n+]1[O-] | – | 86.3 µM | 430 | – | 67 | 20 µM
5 | CC(=O)Oc1ccccc1C(=O)Nc1c(C#N)[n+]([O-])c2cc(F)c(F)cc2[n+]1[O-] | 10.5 µM | 14.8 µM | 74 | 0.7 | 120 | 36 µM
6 | COc1ccc2c(c1)[n+]([O-])c(C#N)c(NC(=O)c1ccccc1OC(C)=O)[n+]2[O-] | – | 42.4 µM | 212 | – | 90 | 27 µM
7 | CCN(CC)CCCC(C)Nc1ccnc2cc(Cl)ccc12 (stereo not drawn) [CHLOROQUINE] | 88.6 µM | 20 µM | – | – | – | –
8 | N#Cc1c(NS(=O)(=O)c2ccc([N+](=O)[O-])cc2)[n+]([O-])c2cc(Cl)c(Cl)cc2[n+]1[O-] | 89.1 µM | 15.9 µM | 79.5 | 5.6 | 62 | 18.7 µM
9 | N#Cc1c(NS(=O)(=O)c2ccc3ccccc3c2)[n+]([O-])c2ccc(Cl)cc2[n+]1[O-] | 88.6 µM | 20 µM | 100 | 4.4 | >78 | > 23.4 µM
10 | Cc1ccc2c(c1)[n+]([O-])c(C#N)c(NS(=O)(=O)c1ccc3ccccc3c1)[n+]2[O-] | > 246 µM | 16.3 µM | 81.5 | >15.1 | >82 | > 24.6 µM
11 | Cc1cc2c(cc1C)[n+]([O-])c(NS(=O)(=O)c1ccc3ccccc3c1)c(C#N)[n+]2[O-] | – | > 100 µM | >100 | – | >79 | > 23.8 µM
12 | CC(=O)Oc1ccccc1C(=O)Nc1c(C#N)[n+]([O-])c2ccccc2[n+]1[O-] | – | 112 µM | 559 | – | 138 | 41.4 µM
13 | CC(=O)Oc1ccccc1C(=O)Nc1c(C#N)[n+]([O-])c2cc(Cl)ccc2[n+]1[O-] | – | 33.6 µM | 168 | – | 36 | 10.8 µM
14 | CC(=O)Oc1ccccc1C(=O)Nc1c(C#N)[n+]([O-])c2cc(C)ccc2[n+]1[O-] | 21.7 µM | 18.8 µM | 94 | 1.1 | 176 | 52.8 µM
15 | CC(=O)Oc1ccccc1C(=O)Nc1c(C#N)[n+]([O-])c2cc(C)c(C)cc2[n+]1[O-] | 12.5 µM | 17.6 µM | 88 | 0.7 | 198 | 59.4 µM
16 | N#Cc1c(NS(=O)(=O)c2ccccc2[N+](=O)[O-])[n+]([O-])c2ccc(Cl)cc2[n+]1[O-] | 6.8 µM | 3.1 µM | 15.5 | 2.2 | 58 | 17.4 µM
